Experimental data published in PMC10388354, “Ir(III) Compounds Containing a Terdentate Ligand Are Potent Inhibitors of Proliferation and Effective Antimetastatic Agents in Aggressive Triple-Negative Breast Cancer Cells” (Journal of Medicinal Chemistry, 2023).

Legend:
Format in all cases: cell-based, human
MCF-10A cells = assay: Antiproliferative activity, sulforhodamine B (SRB) assay, non-malignant cells
Description: The antiproliferative activity of the investigated compounds was evaluated using the SRB assay. The cells were seeded in 96-well tissue culture plates at a density of 3 × 10^3 cells/well in 100 μL of the medium. After overnight incubation in a humidified CO2 incubator, the cells were treated with the tested compounds in a final volume of 200 μL/well. After an additional 72 h, cells were washed with PBS and fixed for 1 h at 4 °C with trichloroacetic acid. Then, the cells were stained with 0.4% SRB dye for 30 min. Stained cells were dissolved with Tris (10 mM). The cell viability was evaluated by measurement of the absorbance at 570 nm using an absorbance reader (SPARK TECAN, SCHOELLER). The reading values were converted to the percentage of control (% cell survival). Antiproliferative effects were expressed as IC50 values calculated from curves constructed by plotting cell survival (%) versus drug concentration (μM) (IC50 = concentration of the agent inhibiting cell growth by 50%). Concentrations of compounds present in the medium during the treatment were verified by FAAS or ICP-MS.

MDA-MB-231 cells = assay: Anti-invasion activity, real-time monitoring (xCELLigence RTCA CIM plate); details: cells treated with IC50,72h for 24 h before seeding; monitored 7 days; untreated control 21 h
Description: The anti-invasive effects of the investigated Ir complexes in real time were assessed by the xCELLigence DP instrument with the migration RTCA CIM plate 16.[48] This system is based on the principle of the Boyden chamber that allows real-time monitoring of the number of invading cells. When cells migrate from the upper to lower wells through the microporous membrane with integrated microelectrodes, they contact and adhere to the microelectrodes affecting the impedance. The output of the experiment performed with this system is the dimensionless cell index (CI); when the cells invade, the CI increases. Moreover, it is possible to analyze the time from cell seeding to the time when invasion through the membrane matrix for each sample treated with tested compounds started (tinv). This period is determined by the intersection of the curve corresponding to the particular time-dependent cell response profile (TCRP) with the straight line corresponding to the threshold value (CI = 0). […] The invasion process was monitored for 7 days to determine whether cell death occurred during the subsequent time after the invasion was observed.
Anti-invasion activity was monitored by the xCELLigence system (Roche). […] Samples were continuously monitored every 5 min for an additional 7 days. […]

B-catenin = assay: RT-qPCR of EMT-related gene transcripts; details: MDA-MB-231, 24 h, IC50,72h
Description: (§1) MDA-MB-231 cells were seeded on a six-well plate at the density of 0.5 × 10^6 cells per well and incubated overnight. […] Cells were harvested, and total RNA was isolated using NucleoSpin RNA columns (Machery Nagel, GE). One-step qPCR combining reverse transcription followed by amplification thermal cycling was applied using a Luna Universal One-Step RT-qPCR (New England BioLabs, MA, USA). Experiments were performed on an Illumina Eco Real-Time PCR (Illumina, CA, USA). The thermal profile was as follows: reverse transcription for 10 min at 55 °C and initial denaturation for 1 min at 95 °C, followed by 43 thermal cycles of denaturation for 10 s at 95 °C and extension for 30 s at 60 °C. Primer sequences were as follows: Β-actin-F: […]; Β-actin-R: […]; Vim-F: […]; Vim-R: […]; E-Cadherin-F: […]; E-Cadherin-R: […]; N-Cadherin-F: […]; N-Cadherin-R: […]; B-Catenin-F: […]; B-Catenin-R: […]; SNAI1-F: […]; SNAI1-R: […]. Purified primers were from Generi Biotech (Czech Republic). All runs included melting curve analysis and template-free negative technical controls to confirm specific single-product amplification. Β-actin was used as an internal control. The relative expression of mRNA is represented as a fold increase (2^–ΔΔCt).[69]

E-Cadherin = assay: RT-qPCR of EMT-related gene transcripts; details: MDA-MB-231, 24 h, IC50,72h
Description: as §1

N-Cadherin = assay: RT-qPCR of EMT-related gene transcripts; details: MDA-MB-231, 24 h, IC50,72h
Description: as §1

SNAI1 = assay: RT-qPCR of EMT-related gene transcripts; details: MDA-MB-231, 24 h, IC50,72h
Description: as §1

Vimentin = assay: RT-qPCR of EMT-related gene transcripts; details: MDA-MB-231, 24 h, IC50,72h
Description: as §1

MDA-MB-231 VIM RFP cells [1] = assay: Wound healing assay
Description: MDA-MB-231 VIM RFP cells were seeded on 35 mm confocal Petri dishes (Mattek) at the density of 3 × 10^5 cells/dish and incubated overnight or for a further 24–48 h to reach approximately 70% confluency. Defined scratch (220 μm width) was done under continuous suction with the pipette tip. Cells were washed, and the medium was replaced with the culture medium supplemented with tested compounds, applied at the equitoxic concentration (IC50,72h). Samples were incubated for an additional 24 h before fixation with 3.7% formaldehyde (10 min, RT) and mounted with ProLong Diamond Antifade Mountant (LifeSciences, Thermo Fisher Scientific). Samples were visualized with a confocal microscope Leica SP8 SMD operated under the deconvolution lightning mode. Images were analyzed by using ImageJ software. The scratch boundaries were identified with the MRI wound healing tool ImageJ plugin or identified manually.

[2] = tested on: spheroids generated from MDA-MB-231 cells; assay: Morphological quantification of 3D tumor spheroids and cell-invasive potential; details: for protrusion occurrence (length): control 32 μm
Excerpt: The cancer cell transition from proliferation to invasion is usually initiated by nutrient stress and unfavorable conditions caused by the progressive growth of the primary tumor.[63] To study the dynamics of cells to evade the primary tumor, we monitored the morphology of spheroids generated from MDA-MB-231 cells embedded in an agar matrix.[64] Multicellular tumor spheroids represent the most used 3D in vitro model[65] and offer the opportunity to study the invasive potential of cancer cells under conditions much closer to the in vivo situation than when the traditional Transwell assay is used.[64] Morphological parameters were utilized to evaluate the invasive potential of spheroids generated from MDA-MB-231 cells.[66] Spheroid perimeter is the most useful morphological parameter for quantifying overall proliferation, whereas roundness, shape integrity, and quantification of protrusion occurrence are the morphological parameters related to the invasion potential.[64],[66] At the most compact stage, cells on the surface follow the contour of the spheroid. This morphology resembles the proliferating but not invading character of the spheroid, whereas diffuse and rough borders are the signs of the invasive character of peripheral cells. Assessment of the spheroid circularity (roundness) was analyzed by the automated edge detection and measurement of the enclosed area. A circularity equal to one indicates a perfectly circular spheroid, whereas lower values indicate a loss of circularity. The solidity is an indicator of the regularity of the spheroids’ surface or its roughness and thus can be considered the indicator of the primary protrusions and the overall regularity of the spheroid.[66]
MDA-MB-231 cells were seeded in a sandwich agar matrix (0.5% bottom gel and 0.35% upper cell-containing gel). First, wells of 24-well plates were covered with 0.5% agar gel, and then MDA-MB-231 cells were resuspended in 0.35% agar matrix. The detailed protocol was as follows: Stock solution of agar gel was prepared by autoclaving 1 g of agar in 100 mL of PBS for at least a 20 min liquid cycle. Twenty-four-well plates were covered with 1 mL of 0.5% agar created by mixing 1% agar solution with cultivation media in 1:1 ratio. The dish was then layered with 1 mL of 0.35% agar composed of 0.35 mL of 1% agar and 0.65 mL of cultivation media containing 10^5 MDA-MB-231 cells. After gel solidification, the dish was covered with 2 mL of cultivation media. Mixing of agar solution and media was carried out after the agar solution cooled to approximately 40 °C to prevent damage by high temperature. Cells were cultured for an additional 7 days to establish spheroid structures, then treated with tested compounds at the equitoxic concentration corresponding to IC50,72h, and cultured for an additional 72 h. Samples were photographed on a phase contrast microscope (Olympus CKX41), and images were processed and analyzed for morphology parameters in ImageJ software.

[3] = tested on: vimentin in MDA-MB-231 VIM RFP cells; assay: Flow cytometric quantification of vimentin (VIM RFP reporter); details: 72 h
Description: Quantification of vimentin expression after the treatment of MDA-MB-231 VIM RFP cells with tested compounds was determined with flow cytometry. MDA-MB-231 VIM RFP cells were seeded at the density of 1 × 10^4 cells/well and incubated overnight. […] After 72 h of incubation, cells were trypsinized and analyzed on a flow cytometer Cell Stream (Luminex, USA). The data were processed using Cell Stream analysis software or FCS Express 7 (DeNovo Software, CA). The fluorescence coming from the VIM RFP tag is proportional to the expression of vimentin in treated cells. Each sample analyzed by flow cytometry consisted of at least 30,000 events.

MDA-MB-231 VIM RFP cells [4] = assay: Morphology of the vimentin intermediate filament network by confocal microscopy; details: 24 h, IC50,72h
Description: MDA-MB-231 VIM RFP cells were seeded on 35 mm confocal Petri dishes (Mattek) at the density of 2.5 × 10^5 cells per dish and incubated overnight. […] Then, samples were washed with PBS, fixed with 3.7% formaldehyde (10 min, RT), and mounted with ProLong Diamond Antifade Mountant with DAPI. Samples were visualized with a confocal microscope Leica SP8 SMD operated under the deconvolution lightning mode.

[5] = β-actin reference, untreated control as calibrator
[6] = one week-old spheroids, 72 h treatment at IC50,72h

COc1cccc2c1C(=O)c1c(O)c3c(c(O)c1C2=O)C[C@@](O)(C(=O)CO)C[C@@H]3O[C@H]1C[C@H](N)[C@H](O)[C@H](C)O1 [Dox, doxorubicin]
IC50 (MCF-10A cells; Homo sapiens, MCF-10A, SRB assay, 72 h incubation, mean ± SD, non-cancerous cells): 8.6 ± 0.8 µM | SI, average selectivity index (MCF-10A cells; IC50 (MCF-10A)/average IC50 (MDA-MB-231 and MCF-7)): ~18 | tinv, period needed to invade through the matrix membrane (MDA-MB-231 cells): approximately 35 h | upregulation of expression of β-catenin (B-catenin): ~3 fold | relative mRNA expression B-catenin (2^–ΔΔCt) (B-catenin; [5]): 2.86 | effect on expression of E-cadherin (E-Cadherin): the expression of E-cadherin slightly decreased | relative mRNA expression E-Cadherin (2^–ΔΔCt) (E-Cadherin; [5]): 0.73 | upregulation of expression of N-cadherin (N-Cadherin): ~3 fold | relative mRNA expression N-Cadherin (2^–ΔΔCt) (N-Cadherin; [5]): 3.39 | upregulation of expression of SNAI1 (SNAI1): ~2 fold | relative mRNA expression SNAI1 (2^–ΔΔCt) (SNAI1; [5]): 1.63 | effect on expression of vimentin (Vimentin): slightly upregulated also the expression of vimentin | relative mRNA expression Vimentin (2^–ΔΔCt) (Vimentin; [5]): 1.21 | wound healing assay observation (MDA-MB-231 VIM RFP cells [1]; 24 h, IC50,72h): induced formation of the pseudopods | wound closure capacity (MDA-MB-231 VIM RFP cells [1]; 24 h after treatment with IC50,72h, untreated control 70%): 67% | mean perimeter of spheroids ([2]; 72 h treatment at IC50,72h, control 2.1 mm): about 2.8 mm | solidity ([2]; one week-old spheroids, 72 h at IC50,72h, control 3.0, Ir1 value affected by collapse of the spheroid structure): 6.3 | secondary protrusions (SP) [2, 6]: secondary protrusions were identified | circularity ([2]; one week-old spheroids, 72 h treatment at IC50,72h, control 0.96): 0.66 | protrusion occurrence (number) ([2]; one week-old spheroids, 72 h treatment at IC50,72h, control 4): 2 | protrusion occurrence (length) [2, 6]: 73 μm | protrusion occurrence (length) ([2]; one week-old spheroids, 72 h treatment at IC50,72h, listed as doxorubicin): up to 73 μm | perimeter ([2]; one week-old spheroids, 72 h treatment at IC50,72h, control 2120 ± 310): 2820 ± 506 μm | RFP fluorescence of VIM RFP reporter ([3]; 2-fold IC50,72h): somewhat suppressed the RFP fluorescence | vimentin expression ([3]; sub-toxic concentrations): considerably increased vimentin expression | morphology of vimentin intermediate filaments (MDA-MB-231 VIM RFP cells [4]): adopted a typical structure
